Data on seven compounds can be found in patent US11291693B2, “Bacteria engineered to treat metabolic diseases” (Synlogic Operating Company, Inc., priority 2015, dated 2022).

The test system of data set [1] is Ptet-GFP reporter construct. The experiment in a line: ATC-inducible GFP reporter assay, fluorescence plate reader. In kind it is cell-based, E. coli Nissle. Particulars: two-fold decreased inducer across a range of concentrations; relative florescence units; FIG. 28. (In general: A reporter such as luciferase makes a cellular process visible.)
Data set [2] concerns dipeptidyl peptidase IV (DPP-IV). As to conditions: cited from earlier work; for resistance to DPPIV mediated degradation / cleavage: short description of a known GLP-1R agonist in Table 10, in words.
Data set [3] concerns rat intestinal epithelial cells. As to conditions: cited from earlier work.
The subject of data set [4] is PnsrR-GFP reporter construct. As to the kind of experiment: Nitric oxide-inducible GFP reporter assay, fluorescence plate reader. The data set is classed as cell-based, E. coli Nissle. Particulars: NO donor DETA-NO, two-fold decreased across a range of concentrations; relative florescence units; FIG. 28.

Take anhydrous tetracycline [ATC]: the “induction of GFP expression in Ptet-GFP reporter construct” value in data set [1] is recorded as “able to induce the expression of GFP”. Consider Dulaglutide, for which the “resistance to DPPIV mediated degradation / cleavage” value in data set [2] is reported as “protection from DPPIV”.

As for “GLP-1: glucagon-like peptide 1, produced by intestinal cells”, in data set [2] (rapid degradation catalyzed by DPP-IV), the stability is 3 to 5 min. As to “GLP-1(7-37): circulating active form of GLP-1, SEQ ID NO: 75”, in data set [2] (blood), the “biological half-life in blood” value is given as “a few minutes”. Taspoglutide: the “resistance to DPPIV mediated degradation / cleavage” value in data set [2] is listed as “avoid degradation by DPPIV,”. In the case of “GLP-1(1-37): full-length form of GLP-1, SEQ ID NO: 73 (HDEFERHAEGTFTSDVSSYLEGQAAKEFIAWLVKGRG)”, the “effect on intestinal epithelial cells” value in data set [3] is given as “stimulate rat intestinal epithelial cells to become glucose-responsive insulin-secreting cells”. Take `NCCN(CCN)/[N+]([O-])=N/O` [NO, diethylenetriamine-nitric oxide adduct]: the “induction of GFP expression in PnsrR-GFP reporter construct” value in data set [4] was “able to induce the expression of GFP”.
